Laboratory results taken from ChEMBL document CHEMBL4368923 (J Med Chem, 2019).

What was measured:
[1] = tested on: Human immunodeficiency virus 1; test: Antiviral activity against HIV1 RES056 harboring reverse transcriptase K103N/Y181C double mutant infected in human MT4 cells assessed as inhibition of virus-induced cytotoxicity after 5 days by MTT assay; assay type: functional, organism-based; conditions: Human immunodeficiency virus 1, RES056, MT4, 120 h
[2] = Cytotoxicity against human MT4 cells assessed as reduction in cell viability after 5 days by MTT assay; assay type: cell-based
[3] = Selectivity index, ratio of CC50 for human MT4 cells to EC50 for HIV1 3B infected in human MT4 cells
[4] = Selectivity index, ratio of CC50 for human MT4 cells to EC50 for HIV1 RES056 harboring reverse transcriptase K103N/Y181C double mutant infected in human MT4 cells
[5] = tested on: Human immunodeficiency virus 1; test: Antiviral activity against HIV1 harboring reverse transcriptase E138K mutant infected in human MT4 cells assessed as inhibition of virus-induced cytotoxicity after 5 days by MTT assay; assay type: functional, organism-based; conditions: Human immunodeficiency virus 1, MT4, 120 h
[6] = tested on: Human immunodeficiency virus 1; test: Antiviral activity against HIV1 harboring reverse transcriptase L100I mutant infected in human MT4 cells assessed as inhibition of virus-induced cytotoxicity after 5 days by MTT assay; assay type: functional, organism-based; conditions: Human immunodeficiency virus 1, MT4, 120 h
[7] = tested on: Human immunodeficiency virus 1; test: Antiviral activity against HIV1 harboring reverse transcriptase K103N mutant infected in human MT4 cells assessed as inhibition of virus-induced cytotoxicity after 5 days by MTT assay; assay type: functional, organism-based; conditions: Human immunodeficiency virus 1, MT4, 120 h
[8] = tested on: Human immunodeficiency virus 1; test: Antiviral activity against HIV1 harboring reverse transcriptase Y181C mutant infected in human MT4 cells assessed as inhibition of virus-induced cytotoxicity after 5 days by MTT assay; assay type: functional, organism-based; conditions: Human immunodeficiency virus 1, MT4, 120 h
[9] = tested on: Human immunodeficiency virus 1; test: Antiviral activity against HIV1 harboring reverse transcriptase Y188L mutant infected in human MT4 cells assessed as inhibition of virus-induced cytotoxicity after 5 days by MTT assay; assay type: functional, organism-based; conditions: Human immunodeficiency virus 1, MT4, 120 h
[10] = tested on: Human immunodeficiency virus 1; test: Antiviral activity against HIV1 harboring reverse transcriptase F227L/V106A double mutant infected in human MT4 cells assessed as inhibition of virus-induced cytotoxicity after 5 days by MTT assay; assay type: functional, organism-based; conditions: Human immunodeficiency virus 1, MT4, 120 h
[11] = tested on: Human immunodeficiency virus 1; test: Antiviral activity against HIV1 3B infected in human MT4 cells assessed as inhibition of virus-induced cytotoxicity after 5 days by MTT assay; assay type: functional, organism-based; conditions: Human immunodeficiency virus 1, 3B, MT4, 120 h
[12] = Solubility of the compound in deionized water at pH 7
[13] = Solubility in water at pH 7; assay type: physicochemical
[14] = biological target: Human immunodeficiency virus type 1 reverse transcriptase (Human immunodeficiency virus 1, UniProt Q72547); test: Inhibition of HIV1 reverse transcriptase p66/p51 using poly(rA)/oligo(dT)16 as template/primer measured after 40 mins by pico-green based spectrofluorometric analysis

What does the source list for `Cc1cn([C@H]2C[C@H](N=[N+]=[N-])[C@@H](CO)O2)c(=O)[nH]c1=O` [ZIDOVUDINE]?
EC50 [1]: 15 nM; CC50 at 120 h [2]: > 7480 nM; selectivity ratio [3]: > 704; selectivity ratio [4]: > 515; EC50 [5]: 14 nM; EC50 [6]: 3.6 nM; EC50 [7]: 11 nM; EC50 [8]: 5.6 nM; EC50 [9]: 5.1 nM; EC50 [10]: 6.2 nM

What does the source list for `Cc1cc(C#N)cc(C)c1Oc1nc(Nc2ccc(C#N)cc2)nc(N)c1Br` [ETRAVIRINE]?
EC50 ([11]; read-out: EC50): 3.5 nM; EC50 ([11]; read-out: pEC50 (converted)): 3.47 nM; EC50 [1]: 50 nM; CC50 at 120 h [2]: > 4590 nM; EC50 [6]: 7.4 nM; EC50 [7]: 3.9 nM; EC50 [8]: 21 nM; EC50 [9]: 27 nM; EC50 [10]: 26 nM; solubility [12]: < 1 µg/mL; solubility [13]: < 1 µg/mL

Which EC50 ([11]; read-out: EC50) does the source give for `Cc1cc(/C=C/C#N)cc(C)c1Oc1ccnc(Nc2ccc(CN3CCC(NC(=O)OC(C)(C)C)CC3)cc2)n1` here?
The EC50 was 26 nM.

What about the EC50 ([11]; read-out: pEC50 (converted)) of the same molecule?
Its EC50 is 25.7 nM.

And the EC50 [1]?
Its EC50 is over 3550 nM.

And the CC50 at 120 h [2]?
Its CC50 at 120 h is 3550 nM.

And the selectivity ratio ([3]; MT4 cells)?
The selectivity ratio was 138.

What about the selectivity ratio ([4]; MT4 cells) of the same molecule?
The selectivity ratio was under 1.

And the EC50 [5]?
Its EC50 is 150 nM.

And the EC50 [6]?
Its EC50 is 280 nM.

And the EC50 [7]?
Its EC50 is 68 nM.

And the EC50 [8]?
Its EC50 is 570 nM.

And the EC50 [9]?
Its EC50 is over 4270 nM.

And the EC50 [10]?
Its EC50 is at least 1140 nM.

What about the IC50 [14] of the same molecule?
The IC50 was 499 nM.

What does the source list for `Cc1cc(/C=C/C#N)cc(C)c1Oc1ccnc(Nc2ccc(CN3CCC(NS(C)(=O)=O)CC3)cc2)n1`?
EC50 ([11]; read-out: EC50): 6.9 nM; EC50 ([11]; read-out: pEC50 (converted)): 6.92 nM; EC50 [1]: > 6990 nM; CC50 at 120 h [2]: 6990 nM; selectivity ratio ([3]; MT4 cells): 1020; selectivity ratio ([4]; MT4 cells): < 1; EC50 [5]: 36 nM; EC50 [6]: 130 nM; EC50 [7]: 25 nM; EC50 [8]: 330 nM; EC50 [9]: 8350 nM; EC50 [10]: 470 nM; IC50 [14]: 76 nM

For `Cc1cc(/C=C/C#N)cc(C)c1Nc1ccnc(Nc2ccc(C#N)cc2)n1` [RILPIVIRINE], which EC50 ([11]; read-out: EC50) is on record?
The EC50 was 1.3 nM.

What about the EC50 ([11]; read-out: pEC50 (converted)) of the same molecule?
The EC50 was 1.29 nM.

What about the CC50 at 120 h [2] of the same molecule?
The CC50 at 120 h was 4380 nM.

For `Cc1cc(C#N)cc(C)c1Oc1ccnc(Nc2ccc(CN3CCC(NS(C)(=O)=O)CC3)cc2)n1`, which EC50 ([11]; read-out: EC50) is on record?
Its EC50 is 55 nM.

And the EC50 ([11]; read-out: pEC50 (converted))?
Its EC50 is 55 nM.

And the EC50 [1]?
The EC50 was over 18100 nM.

What about the CC50 at 120 h [2] of the same molecule?
Its CC50 at 120 h is 18100 nM.

And the selectivity ratio ([3]; MT4 cells)?
The selectivity ratio was 331.

And the selectivity ratio ([4]; MT4 cells)?
Its selectivity ratio is under 1.

And the EC50 [5]?
The EC50 was 380 nM.

And the EC50 [6]?
The EC50 was 700 nM.

And the EC50 [7]?
The EC50 was 460 nM.

And the EC50 [8]?
Its EC50 is 2600 nM.

What about the EC50 [9] of the same molecule?
The EC50 was at least 7800 nM.

And the EC50 [10]?
The EC50 was 3230 nM.

And the IC50 [14]?
Its IC50 is 79 nM.

For `Cc1cc(C#N)cc(C)c1Oc1cc(Cl)nc(Nc2ccc(CN3CCOCC3)cc2)c1`, which EC50 ([11]; read-out: EC50) is on record?
Its EC50 is 930 nM.

And the EC50 [1]?
Its EC50 is over 6900 nM.

What about the selectivity ratio ([3]; MT4 cells) of the same molecule?
Its selectivity ratio is 7.

What about the selectivity ratio ([4]; MT4 cells) of the same molecule?
The selectivity ratio was under 1.

Which results are given for `Cc1cc(C#N)cc(C)c1Oc1ccnc(Nc2ccc(CN3CCC(NC(=O)OC(C)(C)C)CC3)cc2)n1`?
EC50 ([11]; read-out: EC50): 200 nM; EC50 ([11]; read-out: pEC50 (converted)): 200 nM; EC50 [1]: > 4340 nM; CC50 at 120 h [2]: 4340 nM; selectivity ratio ([3]; MT4 cells): 21; selectivity ratio ([4]; MT4 cells): < 1; IC50 [14]: 413 nM

What does the source list for `Cc1ccnc2c1NC(=O)c1cccnc1N2C1CC1` [NEVIRAPINE]?
EC50 ([11]; read-out: EC50): 240 nM; EC50 ([11]; read-out: pEC50 (converted)): 240 nM; EC50 [1]: > 15000 nM; CC50 at 120 h [2]: > 15000 nM; EC50 [6]: 1640 nM; EC50 [7]: 10900 nM; EC50 [8]: > 15000 nM; EC50 [9]: > 15000 nM; EC50 [10]: > 15000 nM
